{"source": "patent US12054447B2", "about": "“PCNA inhibitors” (City of Hope, priority 2015, dated 2024)", "key": {"7SM0032": {"tested_on": "7SM0032", "test": "Cell growth, CellTitor-Glo assay, 72 h", "assay_type": "cell-based, human", "details": "Homo sapiens; 7SM0032 (non-malignant)", "experimental": "(§1) The human NB cell lines, SK-N-DZ, SK-N-BE(2)c, SK-N-AS, and LAN-5 obtained from the American Type Culture Collection (Rockville, MD), were cultured in DMEM with 10% fetal bovine serum (FBS), 100 units/ml penicillin, and 100 μg/ml streptomycin in the presence of 5% CO2 at 37° C. Human PBMCs from a healthy donor were purchased from Sanguine BioSciences (Valencia, CA) and grown in RPMI1640 with 10% FBS, 100 units/ml penicillin, 100 μg/ml streptomycin, and 10 ng/ml IL-2 in the presence of 5% CO2 at 37° C. Human embryonic progenitor cell line 7SM0032 was acquired from Millipore (Billerica, MA) and grown in the hEPM-1 Media Kit purchased from the same company. The plasmid pCBASce expresses the rare cutting I-SceI meganuclease. The U20S-derived cell lines, DR-GFP and EJ5-GFP, each contain a stably transfected reporter gene for DSB repair mediated by HR and end joining (EJ), respectively. These cell lines were cultured in DMEM medium with 10% FBS at 37° C. in the presence of 5% CO2.\nTo measure the effect of the compounds on cell growth, cells were seeded at 3×10^4/ml into a 96-well plate. Once attached, cells were treated with various concentrations of AOH1160 for 72 h. Cell growth was measured by the CellTitor-Glo assay (Promega, Madison, WI) according to the manufacturer's instructions. To measure apoptosis, cells were seeded at 1×10^5/ml onto a chamber slide. Once attached, cells were treated with the 500 nM AOH1160 for 24 h. Cells were fixed and analyzed by a TUNEL assay using the TMR red in situ cell death detection kit (Roche Diagnostics, Indianapolis, IN)."}, "human TRβ": {"target": "human TRβ (Homo sapiens, UniProt P10828)", "sequence (P10828 whole entry)": "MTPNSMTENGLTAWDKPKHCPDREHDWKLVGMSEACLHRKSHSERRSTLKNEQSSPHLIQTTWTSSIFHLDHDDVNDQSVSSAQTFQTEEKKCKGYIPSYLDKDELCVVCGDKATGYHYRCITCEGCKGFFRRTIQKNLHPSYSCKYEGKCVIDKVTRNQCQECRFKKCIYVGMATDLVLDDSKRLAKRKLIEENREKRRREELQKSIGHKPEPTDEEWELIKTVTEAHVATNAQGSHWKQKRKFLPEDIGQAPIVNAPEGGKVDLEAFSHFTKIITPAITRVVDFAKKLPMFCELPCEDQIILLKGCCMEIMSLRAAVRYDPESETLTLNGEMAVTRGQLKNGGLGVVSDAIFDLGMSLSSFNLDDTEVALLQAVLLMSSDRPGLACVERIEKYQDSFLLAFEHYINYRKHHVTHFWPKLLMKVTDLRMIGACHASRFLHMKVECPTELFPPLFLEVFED", "test": "Human thyroid hormone receptor beta (TRβ) reporter assay", "assay_type": "cell-based", "details": "TRβ reporter cells, 24 h", "source_text": "Reporter cells constitutively expressing human TRβ and containing a luciferase reporter gene functionally linked to a TRβ-responsive promoter were purchased from Indigo Biosciences (State College, PA). […] The effect of each compound on TRβ activity was examined by measuring the luciferase reporter gene expression according to the manufacturer's instruction."}, "SK-N-DZ": {"tested_on": "SK-N-DZ", "test": "Cell cycle analysis (PI, flow cytometry)", "assay_type": "cell-based, human", "details": "NB cells (SK-N-DZ), 500 nM", "experimental": "Cells were seeded at 1×10^5/ml in a 6-well plate. Once attached overnight, cells were treated with or without AOH1160 for 6 or 24 h. After being fixed in 60% ethanol and stained with propidium iodide (PI), cells were analyzed by flow cytometry to determine the cellular PI fluorescence intensity. The flow cytometry data were analyzed by the FlowJo program to model various cell populations."}, "Recombinant human PCNA": {"target": "T1, Recombinant human PCNA (Homo sapiens, UniProt P12004)", "T1 construct": "made in house", "T1 sequence (P12004 whole entry)": "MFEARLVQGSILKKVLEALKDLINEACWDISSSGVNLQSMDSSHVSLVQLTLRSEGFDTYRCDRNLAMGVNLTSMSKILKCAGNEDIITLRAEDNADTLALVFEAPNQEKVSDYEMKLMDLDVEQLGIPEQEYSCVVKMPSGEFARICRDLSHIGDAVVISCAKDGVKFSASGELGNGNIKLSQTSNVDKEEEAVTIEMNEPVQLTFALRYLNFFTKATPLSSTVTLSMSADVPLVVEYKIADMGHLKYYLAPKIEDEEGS", "test": "Saturation Transfer Difference (STD) NMR, competition with T3", "assay_type": "binding", "details": "1 μM PCNA, 30 μM T3, 3.2 μM AOH1160", "experimental": "Recombinant human PCNA was purified and exchanged to D2O-based phosphate buffered saline (PBS), pH 7.2. […] The reference spectra were acquired under the same condition without PCNA. 5 uM DSS was used as an internal reference to determine the reported ligand concentration in solution. All NMR experiments were carried out at 25° C. on 600 MHz Bruker Avance equipped with 5 mm triple resonance cryogenic probe. STD (Saturation Transfer Difference) NMR spectra were acquired with transients ranging from 2560 to 32000, spectral width 8012 Hz with 24 k data points. The recycle delay was 2.8 s. Selective saturation was composed of 50 gauss shaped pulses at a field strength of 86 Hz, and the duration of each pulse is 50 ms with a 500 μs delay between pulses. The spin lock filter used to suppress protein signal was optimized to 60 ms at field strength of 5 kHz. The frequency for protein saturation was optimized to be 0.9 ppm; the ligand signals were not disturbed with the employed selective saturation condition at this frequency. The reference spectrum was acquired with saturation irradiated at −30 ppm. To eliminate potential artifacts, the saturation and reference experiments were acquired in an interleaved manner, and the finished experiments were separated into two 1D data for analysis. The peak integration was carried out with Bruker Topspin software. […]"}, "[1]": {"tested_on": "HR-mediated DSB repair in DR-GFP cells", "test": "DSB repair assay, DR-GFP reporter", "assay_type": "cell-based", "details": "I-SceI-induced DSB, GFP-positive cells by flow cytometry", "experimental": "as §1\nDR-GFP and EJ5-GFP cell lines were seeded at 2.5×10^4 cells/cm^2 in a 12-well plate. […] The HR and EJ-mediated DSB repair, indicated by the restoration of a functional GFP gene in the respective cell lines, were quantified by measuring the relative abundance of GFP-positive cells by flow cytometry 3 days after transfection."}, "Stability in plasma": {"test": "Stability in plasma", "assay_type": "in vitro ADME", "source_text": "FIGS. 8A-8B. FIG. 8A depicts an illustration of AOH1160 degradation by amide cleavage in mouse plasma. FIG. 8B depicts the stability of AOH1160 in human and animal plasma. […] AOH1160 is stable in the plasma of canine, monkey, and human, as well as in the plasma of ES-1-deficient mice (Es1e/SCID).\nAOH1160 was degraded in the plasma collected from a wildtype Balb/c mouse, see FIGS. 8A-8B. […] AOH1160 is stable in the plasma of canine, monkey, and human, as well as in the plasma of ES-1-deficient mice (Es1e/SCID)."}}}
{"compound": "O=C(CNC(=O)c1cccc2ccccc12)Nc1ccccc1Oc1ccccc1", "note": "[AOH1160]", "values": [{"measurement": "IC50", "setting": "7SM0032", "result": "> 20", "unit": "µM"}, {"measurement": "thyroid hormone activity in a TR reporter assay", "setting": "human TRβ", "result": "did not show any thyroid hormone activity"}, {"measurement": "cell cycle effect", "setting": "SK-N-DZ", "result": "causes cell cycle arrest"}, {"measurement": "competition with T3 for binding to PCNA", "setting": "Recombinant human PCNA", "result": "competes with T3 for binding to PCNA"}, {"measurement": "HR-mediated DSB repair", "setting": "[1]", "result": "blocks DNA repair in DR-GFP"}, {"measurement": "stability in plasma", "setting": "Stability in plasma; canine plasma", "result": "stable"}, {"measurement": "stability in plasma", "setting": "Stability in plasma; human plasma", "result": "stable"}, {"measurement": "stability in plasma", "setting": "Stability in plasma; monkey plasma", "result": "stable"}, {"measurement": "stability in plasma", "setting": "Stability in plasma; plasma of ES-1-deficient mice (Es1e/SCID)", "result": "stable"}, {"measurement": "stability in plasma", "setting": "Stability in plasma; wildtype Balb/c mouse plasma", "result": "quickly degraded"}]}
